Experimental data published in patent US9688596B2, “Synthesis and biological activity of 2-methylene analogs of calcitriol and related compounds” (Wisconsin Alumni Research Foundation, priority 2015, dated 2017).
Entries after “also recorded” stand apart in the source; their conditions may differ.

What was measured:
[1] = earlier work; cited from earlier work
[2] = system: human promyelocytic HL-60 cells; assay: HL-60 differentiation (NBT reduction); format: cell-based; conditions: for HL-60 differentiation ED50 Ratio: average ratio of the 1α,25-(OH)2D3 ED50 to the ED50 for the analogue, 50% maturation, NBT reduction; for ability to elicit differentiation of HL-60 cells into monocytes (in words): comparator (2MD)
[3] = molecular target: T1, full-length recombinant rat vitamin D receptor (Rattus norvegicus, UniProt P13053); assay: Competitive binding to the vitamin D receptor; conditions: for VDR Binding Ki Ratio: average ratio of the 1α,25-(OH)2D3 Ki to the Ki for the analogue, radiolabeled 1α,25-(OH)2D3 at 1 nM, Kd 0.2 nM; for VDR binding ability (in words): comparator (1 or 3)
T1 sequence (P13053 1-423): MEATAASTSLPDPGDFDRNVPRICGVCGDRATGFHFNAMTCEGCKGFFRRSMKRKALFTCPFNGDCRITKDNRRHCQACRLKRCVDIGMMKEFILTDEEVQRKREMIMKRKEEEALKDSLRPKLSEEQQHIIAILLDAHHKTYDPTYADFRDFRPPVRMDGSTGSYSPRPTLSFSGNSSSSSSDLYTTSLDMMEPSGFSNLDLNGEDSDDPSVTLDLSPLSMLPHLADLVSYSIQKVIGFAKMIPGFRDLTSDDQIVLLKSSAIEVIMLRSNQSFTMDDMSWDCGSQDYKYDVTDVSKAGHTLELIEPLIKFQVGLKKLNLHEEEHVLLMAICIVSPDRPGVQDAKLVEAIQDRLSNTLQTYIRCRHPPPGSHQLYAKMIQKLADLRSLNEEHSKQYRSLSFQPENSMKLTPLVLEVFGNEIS
Description: In the first competitive binding assay, the affinity of vitamins to the full-length recombinant rat receptor was evaluated and compared to 1α,25-(OH)2D3 (1) and 2MD (3).
The Ki values are derived from the dose-response curves and represent the inhibition constant when radiolabeled 1α,25-(OH)2D3 is present at 1 nM and a Kd of 0.2 nM is used. The numbers shown in the Table are expressed as the average ratio of the 1α,25-(OH)2D3 Ki to the Ki for the analogue. ^bInduction of differentiation of HL-60 promyelocytes to monocytes by 1α,25-(OH)2D3 (1) and the synthesized vitamin D analogues. Differentiation state was determined by measuring the percentage of cells reducing nitro blue tetrazolium (NBT). The experiment was repeated in duplicate two times. […] The numbers shown in the Table are expressed as the average ratio of the 1α,25-(OH)2D3 ED50 to the ED50 for the analogue. ^cTranscriptional assay in rat osteosarcoma cells stably transfected with a 24-hydroxylase gene reporter plasmid. […] The numbers shown in the Table are expressed as the average ratio of the 1α,25-(OH)2D3 ED50 to the ED50 for the analogue.

[4] = system: 24-hydroxylase (CYP-24) promoter; assay: 24-hydroxylase transcription (luciferase reporter in rat osteosarcoma cells); format: cell-based; conditions: for 24OHase transcription ED50 Ratio: average ratio of the 1α,25-(OH)2D3 ED50 to the ED50 for the analogue, luciferase activity; for transcriptional potency (in words): compared with 1α,25-(OH)2D3 (1)
Source text: The activity of the synthesized vitamins in inducing transcription of vitamin D target gene was examined using the 24-hydroxylase (CYP-24) promoter.

[5] = cited from earlier work
[6] = ovariectomized (OVX) rat; cited from earlier work
[7] = compared with 1; cited from earlier work
bone formation = conditions: cited from earlier work
[8] = clinical trial; cited from earlier work
[9] = Intestinal calcium transport (everted gut sac); format: in vivo, rat; conditions: rats, four consecutive intraperitoneal doses
Description: (§1) Male, weanling Sprague-Dawley rats were purchased from Harlan (Indianapolis, Ind.). The animals were group housed and placed on Diet 11 (0.47% Ca)+AEK oil for one week followed by Diet 11 (0.02% Ca)+AEK oil for 3 weeks. The rats were then switched to a diet containing 0.47% Ca^xxiii for one week followed by two weeks on a diet containing 0.02% Ca. Dose administration began during the last week on 0.02% Ca diet. Four consecutive intraperitoneal doses were given approximately 24 hours apart. Twenty four hours after the last dose, blood was collected from the severed neck and the concentration of serum calcium determined as a measure of bone calcium mobilization. The first 10 cm of the intestine was also collected for the intestinal calcium transport analysis using the everted gut sac method.^25

[10] = Bone calcium mobilization (serum calcium); format: in vivo, rat; conditions: rats, four consecutive intraperitoneal doses
Description: as §1

[11] = listed as 2-methylene calcitriol

| VDR Binding Ki Ratio [3] | 24OHase transcription ED50 Ratio [4] | VDR binding ability (in words) [3] | transcriptional potency (in words) [4] | transcriptional activity decreased compared with 3 (2MD) ([4]; compared with 3) | affinity to the receptor, higher than natural hormone 1 ([3]; compared to 1α,25-(OH)2D3 (1)) [fold] | SMILES | calcemic potency / in vivo calcemic activity [1] | HL-60 differentiation ED50 Ratio [2] | activity in the intestine compared with 1 [5] | bone formation in OVX rat model [6] | activity in the bone tissue higher than 1 [7] | bone formation in vitro (bone formation) | bone turnover in postmenopausal women [8] | intestinal calcium transport activity (in words) [9] | intestinal calcium transport activity (in words) [9, 11] | bone calcium mobilization / potency in raising serum calcium (in words) [10] | bone calcium mobilization / potency in raising serum calcium (in words) [10, 11] | ability to elicit differentiation of HL-60 cells into monocytes (in words) [2] |
| --- | --- | --- | --- | --- | --- | --- | --- | --- | --- | --- | --- | --- | --- | --- | --- | --- | --- | --- |
| 1 | 29 | – | – | – | – | C=C1[C@H](O)CC(=C/C=C2\CCC[C@]3(C)[C@@H](C(C)CCCC(C)(C)O)CC[C@@H]23)C[C@H]1O (stereo partly drawn) [Compound 3, (20S)-1α,25-dihydroxy-2-methylene-19-nor vitamin D3] | – | 25 | similar | strongly stimulate bone formation | ca. 30 times | strongly stimulate bone formation | increase bone turnover | – | – | – | – | – |
| 1.1 | 10 | almost identical | most pronounced activity | three | – | C=C1/C(=C\C=C2/CCC[C@]3(C)[C@@H]([C@@H](C)CCCC(C)(C)O)CC[C@@H]23)C[C@@H](O)C(=C)[C@@H]1O [Compound 9, (20S)-1α,25-dihydroxy-2-methylene-vitamin D3] | – | 29 | – | – | – | – | – | Much higher potency on intestine; also recorded: more potent than 1 and 3 | – | highest potency in raising serum calcium; also recorded: slightly lower than that of 3; also recorded: ca. one order of magnitude higher compared to calcitriol | – | highest ability to elicit cellular differentiation; also recorded: almost identical |
| – | – | decreased by two orders of magnitude | decreased by one order of magnitude | – | – | C=C1/C(=C\C=C2/CCC[C@]3(C)[C@@H]([C@H](C)CCCC(C)C)CC[C@@H]23)C[C@@H](O)C(=C)[C@@H]1O [Compound 10, 1α-hydroxy-2-methylene-vitamin D3] | – | 0.07 | – | – | – | – | – | – | – | less active but still more calcemic than calcitriol; also recorded: Strong calcemic activity | – | – |
| – | – | decreased by two orders of magnitude | decreased by one order of magnitude | – | – | C=C1/C(=C\C=C2/CCC[C@]3(C)[C@@H]([C@@H](C)CCCC(C)C)CC[C@@H]23)C[C@@H](O)C(=C)[C@@H]1O [Compound 11, (20S)-1α-hydroxy-2-methylene-vitamin D3] | – | 0.7 | – | – | – | – | – | – | – | less active but still more calcemic than calcitriol; also recorded: Strong calcemic activity | – | – |
| 1.1 | 5 | almost identical | most pronounced activity | – | – | C=C1/C(=C/C=C2\CCC[C@]3(C)[C@@H]([C@@H](C)CCCC(C)(C)O)CC[C@@H]23)C[C@@H](O)C(=C)[C@@H]1O [Compound 13, (5E,20S)-1α,25-dihydroxy-2-methylene-vitamin D3] | – | 20 | – | – | – | – | – | – | – | significantly decreased activity in bone | – | highest ability to elicit cellular differentiation; also recorded: almost identical |

| SMILES | VDR Binding Ki Ratio [3] | 24OHase transcription ED50 Ratio [4] | VDR binding ability (in words) [3] | transcriptional potency (in words) [4] | transcriptional activity decreased compared with 3 (2MD) ([4]; compared with 3) | affinity to the receptor, higher than natural hormone 1 ([3]; compared to 1α,25-(OH)2D3 (1)) [fold] | calcemic potency / in vivo calcemic activity [1] | HL-60 differentiation ED50 Ratio [2] | activity in the intestine compared with 1 [5] | bone formation in OVX rat model [6] | activity in the bone tissue higher than 1 [7] | bone formation in vitro (bone formation) | bone turnover in postmenopausal women [8] | intestinal calcium transport activity (in words) [9] | intestinal calcium transport activity (in words) [9, 11] | bone calcium mobilization / potency in raising serum calcium (in words) [10] | bone calcium mobilization / potency in raising serum calcium (in words) [10, 11] | ability to elicit differentiation of HL-60 cells into monocytes (in words) [2] |
| --- | --- | --- | --- | --- | --- | --- | --- | --- | --- | --- | --- | --- | --- | --- | --- | --- | --- | --- |
| C=C1[C@H](O)CC(=C/C=C2\CCC[C@]3(C)[C@@H]([C@H](C)CCCC(C)(C)O)CC[C@@H]23)C[C@H]1O [Compound 2, reference compound] | 1 | 1 | – | – | – | – | significantly increased calcemic potency | 1 | – | – | – | – | – | – | – | – | – | – |
| C=C1/C(=C\C=C2/CCC[C@]3(C)[C@@H]([C@H](C)CCCC(C)(C)O)CC[C@@H]23)C[C@@H](O)C(=C)[C@@H]1O [Compound 8, 1α,25-dihydroxy-2-methylene-vitamin D3] | 1.4 | 1 | almost as effectively as the natural hormone 1 | same transcriptional potency as 1α,25-(OH)2D3 (1) | – | – | – | 0.7 | – | – | – | – | – | Much higher potency on intestine; also recorded: considerably higher potency; also recorded: more potent than 1 and 3 | more active in intestine | highest potency in raising serum calcium; also recorded: considerably higher potency | almost as active as 2MD in the bone | – |
| C=C1/C(=C/C=C2\CCC[C@]3(C)[C@@H]([C@H](C)CCCC(C)(C)O)CC[C@@H]23)C[C@@H](O)C(=C)[C@@H]1O [Compound 12, (5E)-1α,25-dihydroxy-2-methylene-vitamin D3] | 2.5 | 1 | – | same transcriptional potency as 1α,25-(OH)2D3 (1) | – | 2.5 | – | 0.4 | – | – | – | – | – | – | – | significantly decreased activity in bone | – | – |
